Data from ChEMBL document CHEMBL1201862, “PubChem BioAssay data set” (2004).
The source made the active and inactive calls.

What was measured:
Cytochrome P450 2D6 = Cytochrome P450 2D6 (Homo sapiens, UniProt P10635);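 further: CYP2D6 member of a cytochrome P450 panel assay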
[1] = Luminescence Cell-Based Dose Confirmation HTS to Identify Activators of 5'UTR Stem-Loop Driven Alpha-Synuclein mRNA Translation in H4 Neuroglioblastoma Cells. [Related pubchem assays: 1829 (Project Summary), 1814 (Primary HTS)]; format: functional
Cytochrome P450 3A4 = Cytochrome P450 3A4 (Homo sapiens, UniProt P08684);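 further: CYP3A4 tested as one member of a cytochrome P450 panel screen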
Sequence of Cytochrome P450 3A4 (P08684 whole entry): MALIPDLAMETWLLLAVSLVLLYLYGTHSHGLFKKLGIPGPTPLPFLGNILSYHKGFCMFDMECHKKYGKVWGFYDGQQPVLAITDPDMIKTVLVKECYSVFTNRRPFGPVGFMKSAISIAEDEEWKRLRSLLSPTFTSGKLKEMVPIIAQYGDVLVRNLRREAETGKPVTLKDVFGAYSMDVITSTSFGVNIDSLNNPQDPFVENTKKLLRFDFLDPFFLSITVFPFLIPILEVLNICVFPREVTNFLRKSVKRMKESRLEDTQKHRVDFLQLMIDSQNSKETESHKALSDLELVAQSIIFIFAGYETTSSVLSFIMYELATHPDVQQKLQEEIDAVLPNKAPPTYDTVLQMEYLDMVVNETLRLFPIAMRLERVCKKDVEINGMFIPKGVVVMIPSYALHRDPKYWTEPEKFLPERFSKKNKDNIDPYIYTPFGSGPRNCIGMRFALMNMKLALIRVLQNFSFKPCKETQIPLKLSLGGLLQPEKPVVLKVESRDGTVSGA

[2] = Luminescence Cell-Based Dose Response HTS to Identify Activators of Luciferase Translation or Activity in H4 […] Cells. [Related pubchem assays: 1829 (Project Summary), 1814 (Primary HTS)]; format: functional
H4 = assay: Luminescence Cell-Based Dose Response HTS to Identify Activators of 5'UTR Stem-Loop Driven Prion Protein mRNA Translation in H4 Neuroglioblastoma Cells. [Related pubchem assays: 1829 (Project Summary), 1814 (Primary HTS)]; format: functional; conditions: Homo sapiens
Cytochrome P450 2C9 = Cytochrome P450 2C9 (Homo sapiens, UniProt P11712)
Sequence of Cytochrome P450 2C9 (P11712 whole entry): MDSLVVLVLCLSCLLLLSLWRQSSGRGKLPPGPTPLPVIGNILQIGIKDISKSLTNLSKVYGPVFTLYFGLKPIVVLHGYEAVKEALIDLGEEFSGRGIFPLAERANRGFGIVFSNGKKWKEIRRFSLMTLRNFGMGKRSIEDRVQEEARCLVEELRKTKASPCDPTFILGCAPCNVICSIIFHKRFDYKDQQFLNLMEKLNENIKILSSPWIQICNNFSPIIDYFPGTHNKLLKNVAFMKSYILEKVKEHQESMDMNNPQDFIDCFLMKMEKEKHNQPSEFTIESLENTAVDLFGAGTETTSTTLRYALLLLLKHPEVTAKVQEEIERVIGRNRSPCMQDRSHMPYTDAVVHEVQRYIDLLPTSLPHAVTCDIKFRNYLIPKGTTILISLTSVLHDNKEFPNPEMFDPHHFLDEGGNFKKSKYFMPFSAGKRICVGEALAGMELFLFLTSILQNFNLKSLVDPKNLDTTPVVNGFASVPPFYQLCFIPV

[3] = microbe, parasite or virus in culture; format: functional; conditions: Mycobacterium tuberculosis
Cytochrome P450 2C19 = Cytochrome P450 2C19 (Homo sapiens, UniProt P33261); assay: Cytochrome panel assay with activity outcomes. Panel member name: p450-cyp2c19 Compounds with AC50 equal or less than 10 uM are considered active; format: functional; conditions: read-out: AC50
Sequence of Cytochrome P450 2C19 (P33261 whole entry): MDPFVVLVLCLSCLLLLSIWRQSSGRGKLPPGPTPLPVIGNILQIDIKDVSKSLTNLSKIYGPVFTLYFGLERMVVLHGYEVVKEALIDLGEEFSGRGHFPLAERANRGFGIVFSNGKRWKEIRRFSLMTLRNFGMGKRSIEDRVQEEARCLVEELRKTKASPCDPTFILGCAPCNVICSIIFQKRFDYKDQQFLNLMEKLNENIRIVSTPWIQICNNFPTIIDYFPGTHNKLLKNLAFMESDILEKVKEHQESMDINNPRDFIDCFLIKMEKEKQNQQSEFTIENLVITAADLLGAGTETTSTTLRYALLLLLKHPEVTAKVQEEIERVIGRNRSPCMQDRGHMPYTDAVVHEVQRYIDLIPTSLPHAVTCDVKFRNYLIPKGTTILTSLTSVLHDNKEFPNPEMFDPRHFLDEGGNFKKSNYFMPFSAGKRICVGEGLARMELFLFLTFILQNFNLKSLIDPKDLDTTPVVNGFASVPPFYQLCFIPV

Cytochrome P450 1A2 = molecular target: T1, Cytochrome P450 1A2 (Homo sapiens, UniProt P05177);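 further: PubChem cytochrome P450 panel assay, CYP1A2 panel member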
T1 sequence (P05177 whole entry): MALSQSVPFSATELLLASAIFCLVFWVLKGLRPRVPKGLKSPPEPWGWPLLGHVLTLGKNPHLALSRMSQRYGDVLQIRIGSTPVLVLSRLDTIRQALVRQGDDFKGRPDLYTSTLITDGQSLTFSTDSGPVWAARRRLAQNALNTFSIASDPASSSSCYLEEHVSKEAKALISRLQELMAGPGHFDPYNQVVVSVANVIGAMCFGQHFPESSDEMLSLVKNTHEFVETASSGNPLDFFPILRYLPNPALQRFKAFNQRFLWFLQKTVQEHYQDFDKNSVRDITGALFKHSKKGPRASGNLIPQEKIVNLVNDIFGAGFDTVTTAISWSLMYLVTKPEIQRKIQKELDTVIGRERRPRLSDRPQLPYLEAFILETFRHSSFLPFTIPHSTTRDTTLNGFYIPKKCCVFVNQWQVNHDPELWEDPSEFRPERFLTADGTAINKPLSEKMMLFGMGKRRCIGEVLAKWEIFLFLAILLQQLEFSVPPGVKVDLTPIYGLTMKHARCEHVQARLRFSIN

[4] = molecular target: T2, Short transient receptor potential channel 4 (Mus musculus, UniProt Q9QUQ5); assay: mouse TRPC4 channel inhibitors, dose response, cell-based, HEK293 TRPC4/mu-opioid, Fluo-4 calcium (AID 434942); format: functional;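 further: potency of inhibitors blocking the TRPC4 calcium response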
T2 sequence (Q9QUQ5 whole entry): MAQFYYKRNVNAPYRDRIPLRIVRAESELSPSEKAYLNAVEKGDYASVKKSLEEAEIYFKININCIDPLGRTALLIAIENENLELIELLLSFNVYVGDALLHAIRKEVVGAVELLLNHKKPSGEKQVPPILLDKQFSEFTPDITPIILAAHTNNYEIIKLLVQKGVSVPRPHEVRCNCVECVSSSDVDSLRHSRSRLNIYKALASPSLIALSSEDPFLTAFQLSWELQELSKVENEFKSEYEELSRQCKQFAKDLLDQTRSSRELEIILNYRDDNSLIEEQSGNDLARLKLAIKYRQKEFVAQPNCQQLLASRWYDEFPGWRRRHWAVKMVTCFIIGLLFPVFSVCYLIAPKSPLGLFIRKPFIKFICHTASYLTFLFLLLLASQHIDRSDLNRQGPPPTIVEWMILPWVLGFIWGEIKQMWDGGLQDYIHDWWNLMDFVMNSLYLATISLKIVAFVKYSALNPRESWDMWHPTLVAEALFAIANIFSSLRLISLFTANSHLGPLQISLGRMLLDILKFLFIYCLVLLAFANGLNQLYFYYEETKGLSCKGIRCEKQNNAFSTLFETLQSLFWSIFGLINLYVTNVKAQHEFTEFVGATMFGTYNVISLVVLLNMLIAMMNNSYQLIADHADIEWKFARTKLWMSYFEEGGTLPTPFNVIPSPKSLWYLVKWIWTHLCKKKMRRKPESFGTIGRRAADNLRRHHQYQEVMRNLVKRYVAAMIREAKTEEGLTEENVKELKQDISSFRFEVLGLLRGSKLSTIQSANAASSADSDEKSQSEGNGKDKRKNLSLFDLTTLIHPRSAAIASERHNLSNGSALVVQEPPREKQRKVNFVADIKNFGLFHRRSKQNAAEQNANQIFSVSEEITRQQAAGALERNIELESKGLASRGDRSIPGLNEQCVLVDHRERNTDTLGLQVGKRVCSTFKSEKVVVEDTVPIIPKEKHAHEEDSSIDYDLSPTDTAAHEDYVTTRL

[5] = molecular target: T3, DNA repair protein RAD52 homolog (Homo sapiens, UniProt P43351); format: functional, biochemical
T3 sequence (P43351 whole entry): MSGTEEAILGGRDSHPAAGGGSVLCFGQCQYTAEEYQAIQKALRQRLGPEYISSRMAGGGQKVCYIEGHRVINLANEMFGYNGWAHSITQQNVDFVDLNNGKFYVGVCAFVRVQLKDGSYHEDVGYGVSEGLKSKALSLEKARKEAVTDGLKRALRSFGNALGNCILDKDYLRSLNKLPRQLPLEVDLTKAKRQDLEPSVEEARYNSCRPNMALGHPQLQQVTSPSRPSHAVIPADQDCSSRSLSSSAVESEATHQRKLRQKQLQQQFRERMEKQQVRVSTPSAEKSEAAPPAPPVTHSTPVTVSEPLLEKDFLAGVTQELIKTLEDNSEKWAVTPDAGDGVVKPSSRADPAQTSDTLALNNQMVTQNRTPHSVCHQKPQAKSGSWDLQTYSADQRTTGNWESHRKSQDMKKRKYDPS

[6] = inhibitors of SNCA 5'UTR-driven reporter translation, confirmation, H4 neuroglioma cells, luminescence (AID 1988); format: functional, cell-based
[7] = inhibitors of firefly luciferase expression or activity, dose response, H4 neuroglioma cells, luminescence (AID 1990); format: functional, cell-based
[8] = Luminescence Cell-Based Dose Response HTS to Identify Inhibitors of 5'UTR Stem-Loop Driven Prion Protein mRNA Translation in H4 Neuroglioblastoma Cells. [Related pubchem assays: 1827 (Project Summary), 1813 (Primary HTS)]; format: functional
[9] = molecular target: Heat shock protein HSP 90-alpha (Homo sapiens, UniProt P07900); format: functional, organism-based
[10] = Shn3 3'UTR reporter inhibitors, dose response, cell-based, Clone20 osteoblasts, firefly luciferase, cherry-picked (AID 624132); format: functional;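 further: firefly luciferase luminescence from reporter carrying the Shn3 3'UTR in osteoblasts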
[11] = control 3'UTR Renilla luciferase suppression, dose response, counter-screen for Shn3 inhibitor project, cell-based, Clone20-Shn3RL, cherry-picked (AID 624133); format: functional
[12] = Luminescence Cell-Based Dose Retest to Confirm Inhibitors of Cancer Stem Cells. [Related pubchem assays (depositor defined):AID2717, AID2721]; format: functional; conditions: Homo sapiens
[13] = molecular target: T4, Ubiquitin-conjugating enzyme E2 N (Homo sapiens, UniProt P61088); format: functional;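 further: Dose-response confirmation in a TR-FRET assay detecting UBC13-driven polyubiquitin chain formation, inhibition measured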
T4 sequence (P61088 whole entry): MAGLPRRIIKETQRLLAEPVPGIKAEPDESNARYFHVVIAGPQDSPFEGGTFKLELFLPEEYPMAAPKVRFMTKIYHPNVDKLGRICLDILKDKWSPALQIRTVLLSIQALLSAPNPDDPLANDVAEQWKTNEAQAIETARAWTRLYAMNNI

Sequence of Cytochrome P450 2D6 (P10635 whole entry): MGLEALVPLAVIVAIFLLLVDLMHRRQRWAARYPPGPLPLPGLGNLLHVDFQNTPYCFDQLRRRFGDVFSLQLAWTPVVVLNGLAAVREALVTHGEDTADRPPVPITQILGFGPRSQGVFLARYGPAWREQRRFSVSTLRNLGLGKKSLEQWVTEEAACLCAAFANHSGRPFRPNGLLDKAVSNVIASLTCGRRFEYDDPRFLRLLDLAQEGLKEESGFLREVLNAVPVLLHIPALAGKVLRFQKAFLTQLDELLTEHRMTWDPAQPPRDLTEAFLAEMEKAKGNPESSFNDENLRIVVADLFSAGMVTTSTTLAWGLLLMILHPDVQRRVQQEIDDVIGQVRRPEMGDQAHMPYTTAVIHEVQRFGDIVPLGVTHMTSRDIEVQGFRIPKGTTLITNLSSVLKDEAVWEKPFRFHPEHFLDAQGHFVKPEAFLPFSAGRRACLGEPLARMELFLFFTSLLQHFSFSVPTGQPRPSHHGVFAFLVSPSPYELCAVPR

With CCOc1ccc2nc(SCc3ccccc3C#N)sc2c1 the AC50 (Cytochrome P450 2D6) was 17.8 µM (inconclusive), the EC50 [1] was 1.1 µM (active) and the AC50 (Cytochrome P450 3A4) was 12.6 µM (inconclusive). For the same compound, the EC50 [2] was 0.884 µM (active), the EC50 (H4) was 0.7 µM (active) and the AC50 (Cytochrome P450 2C9) was “inconclusive”.

For CCOC(=O)C(C)Sc1nc(-c2cccs2)ccc1C#N (stereo not drawn), the CC50 [3] was 38.9 µM (active).

For Fc1cccc(Cl)c1CSc1nc[nH]n1, the AC50 (Cytochrome P450 2C19) was 39.8 µM (inconclusive), the AC50 (Cytochrome P450 1A2) was 10 µM (inconclusive) and the AC50 (Cytochrome P450 2C9) was “inconclusive”.

For O/N=C/c1ccccc1Oc1ccc(Cl)cc1, the EC50 [4] was 6.68 µM (active).

With COc1cc(-c2cnc3c(NC=O)cc(-c4ccc(N5CCN(C)CC5)cc4)cn23)cc(OC)c1OC the AC50 [5] was 4.54 µM (active).

With CN(C)CC/C=C1\c2ccc(F)cc2Sc2cc(F)c(Cl)cc21 the EC50 [6] was 12.9 µM (active), the EC50 [7] was > 120 µM (not active) and the EC50 [8] was 45.6 µM (active). The AC50 [5] was 9.75 µM (active).

For COc1cc(C#Cc2c(-c3cncn3C)n(C)c3ccc(-c4ccc(OC)nc4)cc23)cc(OC)c1, the AC50 [9] was 5.5 µM (active), the AC50 [10] was 20.5 µM (active) and the AC50 [11] was 21.2 µM (active). For the same compound, the AC50 [12] was 4.95 µM (active).

With c1ccc(CN2CCN(c3nc(NCc4ccco4)c4ccccc4n3)CC2)cc1 the CC50 [3] was 24.4 µM (active) and the AC50 [12] was 3.34 µM (active).

In the case of O=C(CCCCCN1C(=O)c2ccccc2C1=O)NCCc1nc2ccccc2[nH]1, the IC50 [13] is reported as > 20 µM (inactive).

For Cc1ccc(S(=O)(=O)O/N=C2/CCCc3occc32)cc1, the AC50 (Cytochrome P450 2C19) was 35.5 µM (inconclusive) and the AC50 (Cytochrome P450 2C9) was “inconclusive”.

In the case of O=C(C1CCN(S(=O)(=O)c2cccc3cccnc23)CC1)N1CCN(c2ccccn2)CC1, the AC50 (Cytochrome P450 2C19) is reported as 7.08 µM (inconclusive), the AC50 (Cytochrome P450 1A2) is reported as 20 µM (inconclusive) and the AC50 (Cytochrome P450 2C9) is reported as “inconclusive”.
